Measured values reported in patent US6713474B2, “Pyrrolopyrimidines as therapeutic agents” (Abbott GmbH & Co. KG, priority 1998, dated 2004).

`CCOC(=O)C(C)n1cc(-c2ccc(Oc3ccccc3)cc2)c2c(N)ncnc21` (stereo not drawn) [Example 148, Ethyl 2-[4-Amino-5-(4-phenoxyphenyl)-7H-pyrrolo[2,3-d]pyrimidin-7-yl]propionate] gave a melting point of 139 to 140 °C. In the case of `N#Cc1c(NCCCn2ccnc2)cccc1Oc1ccc(-c2cn(C3CCOC3)c3ncnc(N)c23)cc1` (stereo not drawn) [Example 39, 2-[4-(4-Amino-7-(3-tetrahydrofuryl)-7H-pyrrolo[2,3-d]pyrimidin-5-yl)phenoxy]-6-(3-imidazol-1-yl)propylaminobenzonitrile], the melting point is reported as 110 °C. With `COCCCNc1cccc(Oc2ccc(-c3cn(C4CCOC4)c4ncnc(N)c34)cc2)c1C#N` (stereo not drawn) [Example 41, 2-[4-(4-Amino-7-(3-tetrahydrofuryl)-7H-pyrrolo[2,3-d]pyrimidin-5-yl)phenoxy]-6-(3-methoxypropylamino)benzonitrile] the melting point was 183 to 184 °C. With `Cl.NCCn1cc(-c2ccc(Oc3ccccc3)cc2)c2c(N)ncnc21` the melting point was 284 to 285 °C. Compound `Nc1ncnc2c1c(-c1ccc(Oc3ccccc3)cc1)cn2C1CCNC1` (stereo not drawn) [Example 205, 5-(4-Phenoxyphenyl)-7-(3-pyrrolidinyl) -7H-pyrrolo[2,3-d]pyrimidin-4-ylamine] has a melting point of 182 to 184 °C. `Nc1ncnc2c1c(-c1ccc(Oc3ccccc3)cc1)cn2C1COCC1O` (stereo not drawn) [Example 30, 4-[4-Amino-5-(4-phenoxyphenyl)-7H-pyrrolo-[2,3-d]pyrimidin-7-yl]tetrahydrofuran-3-ol] gave a melting point of 234.5 to 235.5 °C. Compound `Nc1ncnc2c1c(-c1ccc(Oc3ccc(F)cc3)cc1)cn2C1CCOC1` (stereo not drawn) [Example 35, 5-[4-(4-Fluorophenoxy)phenyl]-7-(3-tetrahydrofuryl)-7H-pyrrolo[2,3-d]pyrimidin-4-ylamine] has a melting point of 198 to 199 °C. In the case of `Nc1ncnc2c1c(-c1ccc(Oc3ccccc3)cc1)cn2CCCCCCCCN1C(=O)c2ccccc2C1=O` [Example 169, 5-(4-Phenoxyphenyl)-7-(8-phthalimidooctyl)-7H-pyrrolo[2,3-d]pyrimidin-4-ylamine], the melting point is reported as 85 to 86 °C. In the case of `N#Cc1cc(F)ccc1Oc1ccc(-c2cn(C3CCOCC3)c3ncnc(N)c23)cc1` [Example 53, 2-[4-(4-Amino-7-(4-tetrahydropyranyl)-7H-pyrrolo[2,3-d]pyrimidin-5-yl)phenoxy]-5-fluorobenzonitrile], the melting point is reported as 216 to 217 °C. Work on `Nc1ncnc2c1c(-c1ccc(Oc3ccccc3)cc1)c(Br)n2C1CCOC1` (stereo not drawn) [Example 40, 4-Amino-6-bromo-5-(4-phenoxyphenyl)-7-(3-tetrahydrofuryl)-7H-pyrrolo[2,3-d]pyrimidine] yielded a melting point of 205 to 206 °C. With `CC(C(=O)NCCN(C)C)n1cc(-c2ccc(Oc3ccccc3)cc2)c2c(N)ncnc21` (stereo not drawn) [Example 149, N-(2-Dimethylaminoethyl)-2-[4-amino-5-(4-phenoxyphenyl)-7H-pyrrolo[2,3-d]pyrimidin-7-yl)propionamide] the melting point was 163 to 164 °C. For `Nc1ncnc2c1c(-c1ccc(Oc3ccccc3)cc1)cn2C1CCC2(CC1)OCCO2` [Example 174, 5-(4-Phenoxyphenyl)-7-(1,4-dioxaspiro[4,5]decan-8-yl)-7H-pyrrolo[2,3-d]pyrimidin-4-ylamine], the melting point was 193 to 194 °C. Work on `COCCCNc1cccc(Oc2ccc(-c3cn(C4CCOCC4)c4ncnc(N)c34)cc2)c1C#N` [Example 52, 2-[4-(4-Amino-7-(4-tetrahydropyranyl)-7H-pyrrolo[2,3-d]pyrimidin-5-yl)phenoxy)-6-(3-methoxypropylamino)benzonitrile] yielded a melting point of 205 to 207 °C. `CC(C)(C)OC(=O)N1CCC(n2cc(-c3ccc(Oc4ccccc4)cc3)c3c(N)ncnc32)C1` (stereo not drawn) [Example 203, tert-Butyl 3-[4-Amino-5-(4-phenoxyphenyl)-7H-pyrrolo[2,3-d]pyrimidin-7-yl]-1-pyrrolidinecarboxylate] gave a melting point of 168 to 170 °C. With `Nc1ncnc2c1c(-c1ccc(Oc3ccccc3)cc1)cn2CC(=O)NCCN1CCOCC1` [Example 153, N-(2-Morpholinoethyl)-2-[4-amino-5-(4-phenoxyphenyl)-7H-pyrrolo[2,3-d]pyrimidin-7-yl]acetamide] the melting point was 164 to 165 °C. `Nc1ncnc2c1c(-c1ccc(Oc3cccc(CN4CCOCC4)c3)cc1)cn2C1CCOC1` (stereo not drawn) [Example 37, 5-[4-(3-Morpholinomethylphenoxy)phenyl]-7-(3-tetrahydrofuryl)-7H-pyrrolo[2,3-d]pyrimidin-4-ylamine] gave a melting point of 83 to 85 °C. In the case of `CCN1CCCC1CNC(=O)Cn1cc(-c2ccc(Oc3ccccc3)cc2)c2c(N)ncnc21` (stereo not drawn) [Example 155, N-(N-Ethylpyrrolidin-2-ylmethyl)-2-[4-amino-5-(4-phenoxyphenyl)-7H-pyrrolo[2,3-d]-pyrimidin-7-yl]acetamide], the melting point is reported as 122 to 122.5 °C. In the case of `CN1CCN(C2CCC(n3cc(-c4ccc(Oc5ccccc5)cc4)c4c(N)ncnc43)C2)CC1.O=C(O)/C=C\C(=O)O.O=C(O)/C=C\C(=O)O.O=C(O)/C=C\C(=O)O` (stereo not drawn) (hydrate or solvate), the melting point is reported as 168 to 170 °C (dec.). Compound `CN(C)[C@H]1CC[C@@H](n2cc(-c3ccc(Oc4ccccc4)cc3)c3c(N)ncnc32)CC1` [Example 196, cis-7-(4-Dimethylaminocyclohexyl)-5-(4-phenoxyphenyl)-7H-pyrrolo[2,3-d]pyrimidin-4-ylamine] has a melting point of 180 to 182 °C. With `Cl.Cl.Nc1ncnc2c1c(-c1ccc(Oc3ccccc3)cc1)cn2C1CCNC1` (stereo not drawn) (hydrate or solvate) the melting point was 298 °C (dec.). Compound `Nc1ncnc2c1c(-c1ccc(Oc3ccc(CN4CCOCC4)cc3)cc1)cn2C1CCOC1` (stereo not drawn) [Example 36, 5-[4-(4-Morpholinomethylphenoxy)-phenyl]-7-(3-tetrahydrofuryl)-7H-pyrrolo[2,3-d]pyrimidin-4-ylamine] has a melting point of 142 to 144 °C. `N#Cc1c(NCCc2ccncc2)cccc1Oc1ccc(-c2cn(C3CCOCC3)c3ncnc(N)c23)cc1` [Example 51, 2-[4-(4-Amino-7-(4-tetrahydropyranyl)-7H-pyrrolo[2,3-d]pyrimidin-5-yl)phenoxy]-6-(2-(4-pyridyl)ethylamino)benzonitrile] gave a melting point of 120 to 123 °C. Compound `CC(C)C(=O)n1cc(-c2ccc(Oc3ccccc3)cc2)c2c(N)ncnc21` [Example 173, 7-Isobutyryl-5-(4-phenoxyphenyl)-7H-pyrrolo[2,3-d]pyrimidin-4-ylamine] has a melting point of 160.5 to 161 °C. `N#Cc1cccnc1-n1cc(-c2ccc(Oc3ccccc3)cc2)c2c(N)ncnc21` [Example 180, 2-[4-Amino-5-(4-phenoxyphenyl)-7H-pyrrolo[2,3-d]pyrimidin-7-yl]pyridine-3-carbonitrile] showed a melting point of 242 to 242.5 °C.
